Test results from article PMC7816196, “Antitubercular 2-Pyrazolylpyrimidinones: Structure–Activity Relationship and Mode-of-Action Studies” (Journal of Medicinal Chemistry, 2021).

Assays:
Assay type in all cases: cell-based, Mycobacterium tuberculosis
MmpL3 G596R = system: MmpL3 G596R
MmpL3 F255L = system: MmpL3 F255L
MmpL3 V681 = system: MmpL3 V681

| SMILES | MmpL3 G596R MIC (MmpL3 G596R) | MmpL3 F255L MIC (MmpL3 F255L) | MmpL3 V681 MIC (MmpL3 V681) |
| --- | --- | --- | --- |
| CC(=O)Nc1cc(C)nn1-c1nc(-c2ccccc2)cc(=O)[nH]1 [Compound 15, N-(3-Methyl-1-(4-oxo-6-phenyl-1,4-dihydropyrimidin-2-yl)-1H-pyrazol-5-yl)acetamide] | >200 µM | >200 µM | >200 µM |
| Cc1cc(Nc2ccc(F)cc2)n(-c2nc(C(F)(F)F)cc(=O)[nH]2)n1 [Compound 40, 2-(5-((4-Fluorophenyl)amino)-3-methyl-1H-pyrazol-1-yl)-6-(trifluoromethyl)pyrimidin-4(3H)-one] | – | >200 µM | – |
